Laboratory results published in the NIST ThermoML archive (doi:10.1021/je0501078).

Test: molar heat capacity at constant pressure
Conditions: 101.33 kPa

O=C1CCCCC1C1(O)CCCCC1 (centres undefined) [1'-hydroxy-[1,1'-bicyclohexyl]-2-one]
Crystal
Conditions | molar heat capacity at constant pressure [J/K/mol]
5 K | 0.496
10 K | 3.909
15 K | 10.08
20 K | 17.48
25 K | 25.17
30 K | 32.48
35 K | 39.18
40 K | 45.5
45 K | 51.25
50 K | 56.58
60 K | 66.47
70 K | 75.55
80 K | 84.14
90 K | 92.37
100 K | 100.7
110 K | 108.6
120 K | 116.4
130 K | 124.2
140 K | 132
150 K | 139.8
160 K | 147.7
170 K | 155.8
180 K | 163.9
190 K | 171.9
200 K | 180
210 K | 188.2
220 K | 196.6
230 K | 205.1
240 K | 213.9
250 K | 223.2
260 K | 233.2
270 K | 243.9
280 K | 255.5
290 K | 268
300 K | 281.5
306.75 K | 291.3

Liquid, Large sample (1 g) DSC
Conditions | molar heat capacity at constant pressure [J/K/mol]
306.75 K | 350
310 K | 352
320 K | 359.3
330 K | 367.5
340 K | 376.8
350 K | 387.2
360 K | 398.7
370 K | 411.2
